“Also recorded” adds a separate entry of the source.
How the values were obtained:
[1] = test system: NK cells; experiment: NK cell viability after treatment with AZA or VEN; assay type: cell-based, human; conditions: 0.01 nM to 10 μM, 48 h, 3 independent NK donors
Method: (§1) Human NK cells were purified from PBMCs using MACSxpress® Whole Blood NK Cell Isolation Kit (Miltenyi, ref #130-127-695) according to supplier recommendations. NK cells were then cultured in complete medium at 5×10^6 cells/mL at +37° C. at 5% CO2 (so called “resting” NK cells) overnight before being used in the activation assay.
(§2) Of these serial dilutions 100 μL of VEN (single agent) was added to each well that contains 100 μL of cell suspension to obtain a final concentration of 10, 1, 0.1, 0.01, 0.001, 0.0001, 0.00001 μM in a final volume of 200 μL/well.
Following the proper timing of incubation (from 6 h to 72 h), 0.05×10^6 cells/well MOLM-13 and NK cells in 96-well round bottom plates (Corning® Costar® Ultra-Low Attachment Multiple 96-Well Plate; Thermo Scientific, Denmark, ref #7007) were centrifuged at 300 g for 5 minutes at RT. Supernatant was aspirated and Tampon Running Buffer (Miltenyi, ref #130-091-2221) or the antibodies were added to the cell pellets (50 μL/well). In addition, 1 μL of each antibody was used to stain the compensation beads. The cells and the beads were incubated for 20 minutes at 4° C. […]
(§3) Finally, 100 μL/well of PBS were added before reading the plate by MACSQuant Analyzer 16 Flow Cytometer. The propidium iodide (PI) marker of viability was added to every well reading at 1/10 dilution.

[2] = test system: CD16a on NK cells; experiment: CD16a expression on NK cells by flow cytometry; assay type: cell-based, human; conditions: 1 μM AZA or 1 nM VEN
Method: as §1
(§4) Following the proper timing of incubation (from 6 h to 72 h), 0.05×10^6 cells/well MOLM-13 and NK cells in 96-well round bottom plates (Corning® Costar® Ultra-Low Attachment Multiple 96-Well Plate; Thermo Scientific, Denmark, ref #7007) were centrifuged at 300 g for 5 minutes at RT. Supernatant was aspirated and Tampon Running Buffer (Miltenyi, ref #130-091-2221) or the antibodies were added to the cell pellets (50 μL/well). In addition, 1 μL of each antibody was used to stain the compensation beads. The cells and the beads were incubated for 20 minutes at 4° C. Two consecutive washing steps were performed by adding 150 and then 200 μL of Tampon Running Buffer in the wells followed by centrifugation at 300 g for 5 minutes at 4° C.
as §3

[3] = test system: NK cells; experiment: NK cell phenotype in the presence of AZA or VEN; assay type: cell-based, human; conditions: AZA or VEN at defined concentrations (1 μM AZA, 1 nM VEN, 48 h)
Method: as §1, §4, §3

[4] = test system: NKp46 on NK cells; experiment: NKp46 expression on NK cells by flow cytometry; assay type: cell-based, human; conditions: 1 μM AZA or 1 nM VEN
Method: as §1, §4, §3

[5] = test system: CD123 on MOLM-13 cells; experiment: CD123 expression on MOLM-13 cells by flow cytometry; assay type: cell-based; conditions: for CD123 expression level (MedFI) on MOLM-13 cells: 0.01 nM to 10 μM; for CD123 expression (median fluorescence intensity) on MOLM-13 cells: 1 nM and 1 μM, 6 h, 24 h or 48 h, MOLM-13 alone or with NK cells from two donors; for CD123 target expression on MOLM-13 AML tumor cells (conclusion): at the tested concentrations, up to 6 days of treatment
Method: as §4, §3
(§5) Finally, NK cell at effector:target (E:T) ratio of 1:1 (thus 0.05×10^6 cells/well) were incubated with MOLM-13 cell line at 37° C. in the presence of 5% CO2. After 6 h, 24 h, or 48 h, plates were centrifuged at 300 g for 5 minutes at RT. The Tampon Running Buffer or the selected antibodies were added to the cell pellets (50 μL/well) to assess cell viability and to perform the flow cytometry-based staining.

[6] = cited from earlier work
[7] = test system: MOLM-13 cells; experiment: MOLM-13 cell viability over 72 h and 6 days with AZA or VEN (flow cytometry); assay type: cell-based
Method: as §4, §3

[8] = at the dose of 400 mg; cited from earlier work
[9] = test system: CD123-positive MOLM-13 AML cell line; experiment: 5-azacytidine and venetoclax flow cytometry cytotoxic assay, 48 h; assay type: cell-based
Method: The MOLM-13 cell line (DSMZ ACC 554) is an acute myeloid leukemia cell line. These cells are mostly round cells growing in suspension. For maintenance, cells were resuspended in fresh RPMI1640 medium supplemented with 10% Fetal Bovin Serum (FBS; Biowest, ref #S140H-100) and 2 mM L-Glutamine (Gibco, ref #25030-024) referred as complete culture medium at 0.3×10^6 cells/mL for 3 or 4 days.
On the day of the assay, the product was thawed and vortexed to eliminate potential aggregates before cascade dilution. A first dilution of 1/100 was performed in complete culture medium. Then, a dilution range from 20 μM (twice concentrated) to 20 pM (1/10 serial dilution) was performed in complete culture medium to assess the concentration-dependent effect of the single agent.
Similarly, stock solution of VEN was stored in complete culture medium at 4° C. On the day of the assay, the product was vortexed to eliminate potential aggregates before cascade dilution. A dilution range from 20 μM (twice concentrated) to 20 pM (1/10 serial dilution) was performed in complete culture medium to assess the concentration-dependent effect of the single agent.
as §2
CD123-positive MOLM-13 target cells were counted the day of the assay and the amount of cell needed for the experiment was evaluated. Target cells were seeded at 0.05×10^6 cells/50 μL of complete culture medium per well.
In the meantime, compound seral dilutions or the four defined concentrations were prepared and added to a U-bottom 96-well plate (100 μL/well). As controls, target cells alone without drugs, were cultured at the same concentration in complete culture medium (200 μL/well). Each condition was performed in monoplicate.
Culture plates were incubated at 37° C. in the presence of 5% CO2 for 48 h. The plates were centrifuged at 300 g for 5 minutes at RT and resuspended in 100 μL of PBS to the following reading by MACSQuant Analyzer 16 Flow. The marker of viability PI was added to every well reading at dilution 1/10.

[10] = test system: CD123-positive MOLM-13 cells; experiment: 5-azacytidine and venetoclax cytotoxic assays in the absence or presence of NK cells (6 h, 24 h, 48 h); assay type: cell-based; conditions: VEN 1 μM
Method: as §5

[11] = test system: MOLM-13 RFP AML cells; experiment: Incucyte in vitro killing assay with NK effector cells, E:T 1:1; assay type: cell-based; conditions: CD123 NKCE 5 ng/mL, AZA 600 nM or VEN 2 nM
Method: MOLM-13 RFP cells were generated by infecting MOLM-13 (DSMZ, ACC: 554) with the Incucyte® Nuclight Red Lentivirus (Sartorius #4476) to express a nuclear-restricted mKate2 (red fluorescent protein, RFP). MOLM-13 RFP cells were harvested in the same culture medium used for wild-type cells with the addition of 1 μg/mL of puromycin (Gibco, ref #A11138-03) to maintain the selection pressure.
Human NK cells were purified from PBMCs using MACSxpress® Whole Blood NK Cell Isolation Kit (Miltenyi, ref #130-127-695) according to supplier recommendations. […]
Cytotoxicity was evaluated using the Incucyte live-cells analysis system which allows to quantify the number of live fluorescent target cells over time.
First, 50 μL of CD123 NKCE and its isotype control were distributed in the appropriate wells of an F-bottom (flat-bottom) 96-well plate coated with poly-D-lysine (Greiner BioOne ref #655946). CD123 NKCE was tested at 5 ng/mL, while its isotype was evaluated at the highest concentration of 100 ng/ml. […]
The growth/proliferation of MOLM-13 RFP tumor cells was monitored by cell imaging up to 64 h using the Incucyte® S3 with standard scans every 4 h. […] Tumor cells growth/proliferation was calculated by counting the number of red cells at each time point, which was then normalized to the number of cells at time zero and expressed as a percentage.

| Structure (SMILES) | NK cell viability [1] | CD16a expression level on NK cells [2] | impact on NK cell phenotype [3] | NKp46 expression level on NK cells [4] | CD123 expression level (MedFI) on MOLM-13 cells ([5]; 48 h) | CD123 expression (median fluorescence intensity) on MOLM-13 cells [5] | CD123 target expression on MOLM-13 AML tumor cells (conclusion) [5] | target cell lysis, single agent [11] | other results |
| --- | --- | --- | --- | --- | --- | --- | --- | --- | --- |
| CC1(C)CCC(CN2CCN(c3ccc(C(=O)NS(=O)(=O)c4ccc(NCC5CCOCC5)c([N+](=O)[O-])c4)c(Oc4cnc5[nH]ccc5c4)c3)CC2)=C(c2ccc(Cl)cc2)C1 [VEN] | did not negatively impact; also recorded: no cytotoxic effect | no impact | minimal impact | no impact | mild reduction | did not impact | minimal impact | increased target cell lysis; also recorded: some target lysis | aqueous solubility [6]: very low; MOLM-13 viability ([7]; VEN 2, 5 and 10 nM): impacted MOLM-13 viability mainly after 6 days; plasma concentration [8]: 2 µM; MOLM-13 cell viability, concentration-dependent response ([9]; VEN 0.01 nM to 10 μM, 48 h): impact on MOLM-13 cell viability from 10 nM to 10 μM; killing activity as a single agent ([9]; VEN at its plasma concentration, 2 μM): very strong killing activity; killing potential on MOLM-13 cells [10]: enhanced killing potential; impact on MOLM-13 cell viability ([10]; 6 h): no impact; impact on MOLM-13 cell viability ([10]; 24 h): moderate; impact on MOLM-13 cell viability ([10]; 48 h): strong impact |
| Nc1ncn([C@@H]2O[C@H](CO)[C@@H](O)[C@H]2O)c(=O)n1 [AZA, 4-amino-1-beta-D-ribofuranosyl-s-triazin-2 (1H)-one] | did not negatively impact; also recorded: no cytotoxic effect | no impact | minimal impact | no impact | minimal impact | did not impact | minimal impact | increased target cell lysis; also recorded: some target lysis | CD123 median of fluorescence intensity (MedFI) on MOLM-13 cells ([5]; AZA at 1 and 10 μM, 48 h): slight decrease; MOLM-13 cell viability ([7]; AZA 600 nM and 3 μM): did not affect; MOLM-13 AML cell viability ([9]; AZA at high concentration (10 μM), 48 h): strongly decreased; also recorded: cytotoxic activity; MOLM-13 AML cell viability ([9]; AZA at lower concentrations, 48 h, compared to non-treated control): No effect |

Reference: patent publication US20250195653A1, “MULTIFUNCTIONAL NATURAL KILLER (NK) CELL ENGAGER COMBINATION THERAPY FOR TREATING HEMATOLOGICAL NEOPLASTIC DISORDERS” (SANOFI, priority 2023, published 2025)
